Consider 1 sequence from patent US9518107B2, “Pharmaceutical compositions containing polypeptides derived from α-1 antitrypsin and methods of use thereof” (YISSUM RESEARCH DEVELOPMENT COMPANY OF THE HEBREW …, priority 2010, dated 2016).

One experiment relates to peritoneal macrophages. Nature of the experiment: Oxidative burst of peritoneal macrophages (luminol luminescence, phorbol myristate acetate). Type of experiment: cell-based, female C57BL/6 mice. Particulars: 1 μg/ml UBE; FIG. 19. How it is done: Macrophages were harvested by peritoneal lavage of female C57BL/6 mice i.p. injected with thioglycolate. 0.2 ml cells (3×10^5/ml), luminol (200 μM), horseradish peroxidase (1.0 unit/ml) and UBE were suspended in Hank's balanced salt solution (HBSS) (final concentrations of the peptide in the reaction mixture are indicated in the figure). The reaction started by the addition of 1 μM phorbol myristate acetate. The reaction was performed in a 96-well plate. Luminescence was measured by Tecan spectrofluoro Plus.

In experiment [1] the test system is Female NZBW/F1 mice. Nature of the experiment: Spontaneous lupus-like syndrome in NZBW/F1 mice (second SLE model). It is filed as in vivo. How it is done: Female NZBW/F1 mice develop a lupus-like syndrome spontaneously. UBE (SEQ ID NO:2) (0.3 μg/kg) was administered to female NZBW/F1 mice daily (except for Saturday and Holidays), starting at the indicated time point (170 days) (n=10). Urine was obtained by spontaneous urination and the levels of protein (mg/dl) in the urine were evaluated throughout the treatment period using commercial sticks.
Quantitative histopathology analysis of the kidneys and lungs were also performed for this model (FIG. 12A-D). Kidneys were removed from control and UBE treated mice (0.3 lug/kg) then fixed in formalin, sliced, and stained by H&E. Representative histophathologies of the control versus UBE treated mice is shown FIGS. 12A versus 12B at 10× magnification, respectively. Note glomerular sclerosis (GS), thickening glomerular mesangium (G), protein accumulation in tubular lumen (PC), interstitial fibrosis (I) and perivascular lymphoid infiltration (lymphoid) in the control (12A) while normal appearance of kidney in the UBE-treated group (12B). The quantitative histopathology analysis with regard to tubular and interstitial damage is presented in FIG. 12C and FIG. 12D, respectively.
Quantitative histopathology analysis of the lungs was also performed for this model (FIG. 12E-G). Representative histophathologies of control versus UBE treated mice (0.3 μg/kg) is shown FIGS. 12E versus 12F at 10× magnification, respectively. Note heavy perivascular lymphoid infiltration (lymphoid) in the control samples (FIG. 12E) while normal appearance in the UBE-treated group (FIG. 12F).
In order to determine the levels of anti-dsDNA antibodies, blood was obtained by cardiac puncture of the NZBW/F1 mice at the indicated endpoint in UBE treatment, and the serum levels of anti-dsDNA antibodies and BLys (B lymphocyte stimulator) levels were determined by ELISA using a commercial kit (R&D Systems, Minneapolis, Minn., USA).
To evaluate the effect of UBE on lymphocyte function in NZBW/F1 mice, spleen cells and blood samples were isolated from control and UBE-treated (0.3 microgram per kilogram) mice and subjected to FACS analysis of double negative CD4−CD8− (expressed as percent CD3+) (FIG. 14).
Blood cells were similarly evaluated and representative results from control and UBE treated animals (0.3 μg/kg) are shown in FIGS. 14D and 14E, respectively.

Experiment [2] relates to Female NZBW/F1 mice. Described as above. Type of experiment: in vivo. Particulars: FIG. 11B.
The test system of another experiment is mice. Nature of the experiment: LPS induced sepsis in mice, second protocol, UBE i.p. Type of experiment: in vivo. Particulars: for survival of the mice treated: repeated after 24 hours, 50 hours post LPS injection, FIG. 20A. How it is done:
In a second protocol, mice were injected i.p. with LPS (dissolved in saline solution) at a dose of 1.2 mg/mouse, followed by i.p. injection of UBE at a dose of 1.0 or 10.0 μg/kg after 30 minutes. UBE treatment was repeated after 24 hours (n=4 for UBE-treated groups and n=5 for controls).

The next experiment relates to arthritic mice. Nature of the experiment: Collagen type II induced arthritis, joint swelling. Type of experiment: in vivo. Particulars: 1 μg/kg thrice a week, from five days after second immunization; FIG. 16. How it is done:
Chick collagen type II (2.0 mg) was incubated overnight in 0.01 M acetic acid (0.9 ml) at 4° C. The resulting solution was emulsified with equal volume (1.0 ml) of […] Freund's Adjuvant containing 5.0 mg heat-killed Mycobacterium tuberculosis. Thereafter, the animal was injected intradermally in the tail base with 100 μl of the emulsion and an additional immunization was repeated 21 days later. Five days later, UBE or UBE1 polypeptide were administered (1 μg/kg thrice a week). The animals were evaluated for the difference in joint thickness (mm) between the indicated time intervals and prior to immunization.

A further experiment has as its system HaCaT keratinocytes. Nature of the experiment: HaCaT keratinocyte proliferation (MTT assay). It is filed as cell-based. The settings on record: FIG. 18. How it is done:
Cells (1.6×10^4/ml) were seeded (100 μl) in culture medium in 96 well plate. Twenty four hours later UBE was added at the indicated concentrations. Cell viability was determined by the MTT assay.
On the technique in general: Tetrazolium dyes change colour on reduction, which living cells bring about.

With “SMPPIVRFDHPFLFIIFEEHTQSPLFVGKVVDPTHK (listed as Mus musculus) [UBE, 36-mer peptide corresponding to residues 378-413 of Mus musculus alpha-1-antitrypsin (serpin a1c)]”, the “oxidative burst of peritoneal macrophages (luminescence)” value in the experiment on peritoneal macrophages is given as “suppressed”. The “rise in urinary protein levels (proteinuria)” value in the experiment on Female NZBW/F1 mice [1] (UBE 0.3 μg/kg daily from 170 days, FIG. 11A) is “abrogated”. In the experiment on Female NZBW/F1 mice [1] (UBE 0.3 μg/kg, FIG. 12C), the “pathological score of the tubular areas (kidney histopathology)” value is listed as “significant reduction”. Moreover, the “pathological score of the interstitial areas (kidney histopathology)” value in the experiment with Female NZBW/F1 mice [1] (UBE 0.3 μg/kg, FIG. 12D) is listed as “significant reduction”. Further, in the experiment with Female NZBW/F1 mice [1] (UBE 0.3 μg/kg, FIG. 12G), the “pathological score, lung parenchymal damage” value is on record as “significant reduction”. Moreover, the “serum BLys (B lymphocyte stimulator) level, ELISA” value with Female NZBW/F1 mice [1] (UBE 0.3 μg/kg, FIG. 13A) is recorded as “significant reduction”. Moreover, the “serum anti-dsDNA antibody level, ELISA” value in the experiment with Female NZBW/F1 mice [1] (UBE 0.3 μg/kg, FIG. 13B) was “significant reduction”. For the same sequence, the “double negative CD4−CD8− cells, FACS” value in the experiment on Female NZBW/F1 mice [1] (blood, UBE 0.3 μg/kg, FIG. 14F) is “dramatically reduced”. Moreover, the “double negative CD4−CD8− cells (percent CD3+), FACS” value in the experiment with Female NZBW/F1 mice [1] (spleen, UBE 0.3 μg/kg, FIG. 14C) is recorded as “dramatically reduced”. Also, the proteinuria entry in the experiment on Female NZBW/F1 mice [2] (UBE 1 μg/kg) and in the experiment on Female NZBW/F1 mice [2] (UBE 3 μg/kg) was “reduced proteinuria in a significant manner” in each case. Besides, the “survival of the mice treated” value in the experiment on mice (UBE 1.0 μg/kg i.p. 30 minutes after LPS) and in the experiment on mice (UBE 10 μg/kg i.p. 30 minutes after LPS) was “approximately 50%” in each case. Also, the “survival time as compared to controls” value in the experiment on mice (both UBE dosages (1.0 and 10 μg/kg i.p.)) was “significantly prolonged survival”. In addition, the “joint swelling (difference in joint thickness)” value in the experiment on arthritic mice is “reduction in joint swelling”. Also, the “effect on cultured keratinocyte proliferation (cell viability, MTT)” value in the experiment on HaCaT keratinocytes is reported as “anti-proliferative effect”.
